Assay results as given in patent US20130102595A1 (Curis, Inc., priority 2011, published 2013).

Tests used:
[1] = system: HDACs (HeLa cell nuclear extracts); test: HDAC enzymatic activity, Biomol Color de Lys system; assay type: biochemical; conditions: 1 hour, 25° C.
Summary of the method: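 HeLa nuclear extract incubated with serially diluted compound and […] artificial substrate in 50 mM Tris/Cl pH 8.0, 137 mM NaCl, 2.7 mM KCl, 1 mM MgCl2. Run 1 h at 25 °C, stopped with developer. Fluorescence read (ex 350-380, em 440-460 nm); IC50 from sigmoidal dose-response fit.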

PI3Kα (p110α/p85α) = target: T1, PI3Kα (p110α/p85α) (Homo sapiens, UniProt P42336); test: PI3Kα ADP-Glo assay; assay type: biochemical; conditions: 20 μM PIP2, 10 μM ATP, 30 minutes
T1 construct: GST (N); made in house; host or cells: Baculovirus-infected Sf9 cells
T1 sequence (P42336 whole entry): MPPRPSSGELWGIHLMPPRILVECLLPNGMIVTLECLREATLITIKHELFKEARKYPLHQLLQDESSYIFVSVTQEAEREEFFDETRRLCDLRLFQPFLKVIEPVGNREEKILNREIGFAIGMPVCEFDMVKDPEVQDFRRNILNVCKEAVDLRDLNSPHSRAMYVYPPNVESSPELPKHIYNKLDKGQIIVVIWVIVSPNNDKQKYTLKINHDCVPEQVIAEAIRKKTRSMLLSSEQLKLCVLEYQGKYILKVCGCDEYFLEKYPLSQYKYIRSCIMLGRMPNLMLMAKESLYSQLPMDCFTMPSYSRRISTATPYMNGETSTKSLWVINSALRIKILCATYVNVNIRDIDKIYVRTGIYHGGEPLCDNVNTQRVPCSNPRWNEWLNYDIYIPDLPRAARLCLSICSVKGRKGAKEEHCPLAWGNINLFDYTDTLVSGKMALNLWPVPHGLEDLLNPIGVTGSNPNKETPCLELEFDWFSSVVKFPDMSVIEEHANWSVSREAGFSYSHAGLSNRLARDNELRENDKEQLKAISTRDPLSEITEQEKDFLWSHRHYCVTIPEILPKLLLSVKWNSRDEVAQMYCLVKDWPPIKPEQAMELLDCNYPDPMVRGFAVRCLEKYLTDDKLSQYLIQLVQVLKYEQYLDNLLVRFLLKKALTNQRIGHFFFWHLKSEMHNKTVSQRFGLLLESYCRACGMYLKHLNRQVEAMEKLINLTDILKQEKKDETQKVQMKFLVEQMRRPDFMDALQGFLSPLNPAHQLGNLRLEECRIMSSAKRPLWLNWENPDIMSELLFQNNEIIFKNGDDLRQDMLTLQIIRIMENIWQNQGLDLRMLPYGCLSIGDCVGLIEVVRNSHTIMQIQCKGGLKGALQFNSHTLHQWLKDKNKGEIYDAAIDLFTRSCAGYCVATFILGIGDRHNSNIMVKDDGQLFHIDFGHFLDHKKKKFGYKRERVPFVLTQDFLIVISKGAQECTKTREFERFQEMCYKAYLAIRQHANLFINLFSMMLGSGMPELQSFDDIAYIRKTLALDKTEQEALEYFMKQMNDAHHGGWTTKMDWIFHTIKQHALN
T1 sequence (P27986 whole entry partner): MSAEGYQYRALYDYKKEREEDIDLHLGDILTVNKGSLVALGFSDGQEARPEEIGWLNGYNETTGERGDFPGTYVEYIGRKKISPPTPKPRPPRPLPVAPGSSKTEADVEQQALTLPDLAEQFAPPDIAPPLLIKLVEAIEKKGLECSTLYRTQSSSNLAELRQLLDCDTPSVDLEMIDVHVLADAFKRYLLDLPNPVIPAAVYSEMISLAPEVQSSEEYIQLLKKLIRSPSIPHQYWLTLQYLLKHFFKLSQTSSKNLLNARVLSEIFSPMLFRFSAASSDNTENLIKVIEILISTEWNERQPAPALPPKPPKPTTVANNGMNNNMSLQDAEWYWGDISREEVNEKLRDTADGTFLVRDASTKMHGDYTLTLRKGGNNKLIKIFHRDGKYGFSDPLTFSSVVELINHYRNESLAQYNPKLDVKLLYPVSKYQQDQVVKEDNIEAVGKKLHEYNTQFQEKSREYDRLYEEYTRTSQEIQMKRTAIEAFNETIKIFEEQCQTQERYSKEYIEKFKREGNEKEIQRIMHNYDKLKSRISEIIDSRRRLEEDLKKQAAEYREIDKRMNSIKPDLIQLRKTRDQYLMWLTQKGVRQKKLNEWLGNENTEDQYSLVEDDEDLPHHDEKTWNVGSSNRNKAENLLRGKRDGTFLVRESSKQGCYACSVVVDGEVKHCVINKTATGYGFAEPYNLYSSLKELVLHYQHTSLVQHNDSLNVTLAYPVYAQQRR
Summary of the method: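 Recombinant full-length human GST-p110α/His-p85α, co-expressed in Sf9 cells, was incubated 30 min at room temperature with 20 μM PIP2 and 10 μM ATP. The buffer was 50 mM HEPES pH 7.4, 150 mM NaCl, 5 mM MgCl2, 1 mM DTT, 3 µM orthovanadate and 0.5% DMSO. ADP formed was detected by ADP-Glo luminescence.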

SMILES | IC50 [1] [nM] | IC50 (PI3Kα (p110α/p85α)) [nM] | melting point
CN(Cc1cc2nc(-c3cccc4[nH]ncc34)nc(Nc3ccccc3)c2s1)c1ncc(C(=O)NO)cn1 [Compound 164, 2-(((2-(1H-indazol-4-yl)-4-(phenylamino)thieno[3,2-d]pyrimidin-6-yl)methyl)(methyl)amino)-N-hydroxypyrimidine-5-carboxamide] | < 100 | < 100 | 232 to 235 °C
CN(Cc1cc2nc(-c3cccc4[nH]ncc34)nc(Nc3ccccn3)c2s1)c1ncc(C(=O)NO)cn1 [Compound 168, 2-(((2-(1H-indazol-4-yl)-4-(pyridin-2-ylamino)thieno[3,2-d]pyrimidin-6-yl)methyl)(methyl)amino)-N-hydroxypyrimidine-5-carboxamide] | < 100 | 1000 to 10000 | 200 to 203 °C
CN(Cc1cc2nc(-c3cccc4[nH]ccc34)nc(N3CCOCC3)c2s1)c1ncc(C(=O)NO)cn1 [Compound 176, 2-(((2-(1H-indol-4-yl)-4-morpholinothieno[3,2-d]pyrimidin-6-yl)methyl)(methyl)amino)-N-hydroxypyrimidine-5-carboxamide] | < 100 | 100 to 1000 | 200 to 212 °C
CN(Cc1cc2nc(-c3cccc4c3CCN4)nc(N3CCOCC3)c2s1)c1ncc(C(=O)NO)cn1 [Compound 177, N-hydroxy-2-(((2-(indolin-4-yl)-4-morpholinothieno[3,2-d]pyrimidin-6-yl)methyl)(methyl)amino)pyrimidine-5-carboxamide] | < 100 | > 10000 | 146 to 156 °C
CN(Cc1cc2nc(-c3ccc4c(c3)NCCO4)nc(N3CCOCC3)c2s1)c1ncc(C(=O)NO)cn1 [Compound 182, 2-(((2-(3,4-dihydro-2H-benzo[b][1,4]oxazin-6-yl)-4-morpholinothieno[3,2-d]pyrimidin-6-yl)methyl)(methyl)amino)-N-hydroxypyrimidine-5-carboxamide] | < 100 | 1000 to 10000 | 170 to 183 °C
CN(Cc1cc2nc(-c3ccc4[nH]c(=O)[nH]c4c3)nc(N3CCOCC3)c2s1)c1ncc(C(=O)NO)cn1 [Compound 186, N-hydroxy-2-(methyl((4-morpholino-2-(2-oxo-2,3-dihydro-1H-benzo[d]imidazol-5-yl)thieno[3,2-d]pyrimidin-6-yl)methyl)amino)pyrimidine-5-carboxamide] | < 100 | > 10000 | 272 to 275 °C
CN(Cc1cc2nc(-c3ccc4c(c3)CC(=O)N4)nc(N3CCOCC3)c2s1)c1ncc(C(=O)NO)cn1 [Compound 194, N-hydroxy-2-(methyl((4-morpholino-2-(2-oxoindolin-5-yl)thieno[3,2-d]pyrimidin-6-yl)methyl)amino)pyrimidine-5-carboxamide] | < 100 | > 10000 | 270 °C (dec.)
CN(Cc1cc2nc(-c3cn[nH]c3)nc(N3CCOCC3)c2s1)c1ncc(C(=O)NO)cn1 [Compound 196, N-hydroxy-2-(methyl((4-morpholino-2-(1H-pyrazol-4-yl)thieno[3,2-d]pyrimidin-6-yl)methyl)amino)pyrimidine-5-carboxamide] | < 100 | 100 to 1000 | 214 to 217 °C
CN(Cc1cc2nc(-c3cc[nH]c3)nc(N3CCOCC3)c2s1)c1ncc(C(=O)NO)cn1 [Compound 197, N-hydroxy-2-(methyl((4-morpholino-2-(1H-pyrrol-3-yl)thieno[3,2-d]pyrimidin-6-yl)methyl)amino)pyrimidine-5-carboxamide] | < 100 | < 100 | 175 to 189 °C
CN(Cc1cc2nc(-c3ccc(F)cc3)nc(N3CCOCC3)c2s1)c1ncc(C(=O)NO)cn1 [Compound 200, 2-(((2-(4-fluorophenyl)-4-morpholinothieno[3,2-d]pyrimidin-6-yl)methyl)(methyl)amino)-N-hydroxypyrimidine-5-carboxamide] | < 100 | > 10000 | 168 to 170 °C
Cc1ccc(-c2nc(N3CCOCC3)c3sc(CN(C)c4ncc(C(=O)NO)cn4)cc3n2)cc1 [Compound 201, N-hydroxy-2-(methyl((4-morpholino-2-p-tolylthieno[3,2-d]pyrimidin-6-yl)methyl)amino)pyrimidine-5-carboxamide] | < 100 | 100 to 1000 | 170 to 172 °C
CN(Cc1cc2nc(-c3ccc(C(F)(F)F)cc3)nc(N3CCOCC3)c2s1)c1ncc(C(=O)NO)cn1 [Compound 202, N-hydroxy-2-(methyl((4-morpholino-2-(4-(trifluoromethyl)phenyl)thieno[3,2-d]pyrimidin-6-yl)methyl)amino)pyrimidine-5-carboxamide] | < 100 | 100 to 1000 | 222 to 223 °C
COc1ccc(-c2nc(N3CCOCC3)c3sc(NCCCCCC(=O)NO)cc3n2)cn1 [Compound 233, 6-[2-(6-Methoxy-pyridin-3-yl)-4-morpholin-4-yl-thieno[3,2-d]pyrimidin-6-ylamino]-hexanoic acid hydroxyamide] | < 100 | < 100 | 125 to 130 °C
CNc1ccc(-c2nc(N3CCOCC3)c3sc(C(C)N(C)c4ncc(C(=O)NO)cn4)cc3n2)cn1 (stereo not drawn) [Compound 237, N-Hydroxy-2-(methyl(1-(2-(6-(methylamino)pyridin-3-yl)-4-morpholinothieno[3,2-d]pyrimidin-6-yl)ethyl)amino)pyrimidine-5-carboxamide] | < 100 | < 100 | 270 to 275 °C

The next lines start with the values.

IC50 [1] [nM] | IC50 (PI3Kα (p110α/p85α)) [nM] | melting point | SMILES
< 100 | 100 to 1000 | 217 to 223 °C | Nc1ccc(-c2nc(N3CCOCC3)c3sc(CNc4ncc(C(=O)NO)cn4)cc3n2)cc1 [Compound 211, 2-((2-(4-aminophenyl)-4-morpholinothieno[3,2-d]pyrimidin-6-yl)methylamino)-N-hydroxypyrimidine-5-carboxamide]
< 100 | < 100 | > 300 °C | Nc1ncc(-c2nc(N3CCOCC3)c3sc(NS(=O)(=O)c4ccc(/C=C/C(=O)NO)cc4)cc3n2)cn1 [Compound 217, (E)-3-(4-(N-(2-(2-aminopyrimidin-5-yl)-4-morpholinothieno[3,2-d]pyrimidin-6-yl)sulfamoyl)phenyl)-N-hydroxyacrylamide]
< 100 | < 100 | > 300 °C | Nc1ncc(-c2nc(N3CCOCC3)c3sc(NS(=O)(=O)c4cccc(/C=C/C(=O)NO)c4)cc3n2)cn1 [Compound 218, (E)-3-(3-(N-(2-(2-aminopyrimidin-5-yl)-4-morpholinothieno[3,2-d]pyrimidin-6-yl)sulfamoyl)phenyl)-N-hydroxyacrylamide]
< 100 | < 100 | > 300 °C | COc1ccc(-c2nc(N3CCOCC3)c3sc(NS(=O)(=O)c4cccc(/C=C/C(=O)NO)c4)cc3n2)cn1 [Compound 221, (E)-N-hydroxy-3-(3-(N-(2-(6-methoxypyridin-3-yl)-4-morpholinothieno[3,2-d]pyrimidin-6-yl)sulfamoyl)phenyl)acrylamide]
< 100 | 100 to 1000 | > 300 °C | COc1ccc(-c2nc(N3CCOCC3)c3sc(NS(=O)(=O)c4ccc(/C=C/C(=O)NO)cc4)cc3n2)cn1 [Compound 222, N-Hydroxy-3-{4-[2-(6-methoxy-pyridin-3-yl)-4-morpholin-4-yl-thieno[3,2-d]pyrimidin-6-ylsulfamoyl]-phenyl}-acrylamide]
1000 to 10000 | < 100 | 220 to 230 °C | Nc1ncc(-c2nc(N3CCOCC3)c3sc(NCCCC(=O)NO)cc3n2)cn1 [Compound 225, 4-(2-(2-aminopyrimidin-5-yl)-4-morpholinothieno[3,2-d]pyrimidin-6-ylamino)-N-hydroxybutanamide]
< 100 | < 100 | 175 to 180 °C | Nc1ncc(-c2nc(N3CCOCC3)c3sc(NCCCCC(=O)NO)cc3n2)cn1 [Compound 226]
< 100 | < 100 | 206 to 210 °C | CNc1ncc(-c2nc(N3CCOCC3)c3sc(NCCCCC(=O)NO)cc3n2)cn1 [Compound 227, N-Hydroxy-5-(2-(2-(methylamino)pyrimidin-5-yl)-4-morpholinothieno[3,2-d]pyrimidin-6-ylamino)pentanamide]
< 100 | < 100 | 248 to 252 °C | Cc1ncc(-c2nc(N3CCOCC3)c3sc(NCCCCC(=O)NO)cc3n2)cn1 [Compound 229, N-Hydroxy-5-(2-(2-methylpyrimidin-5-yl)-4-morpholinothieno[3,2-d]pyrimidin-6-ylamino)pentanamide]
< 100 | < 100 | 220 to 225 °C | Nc1ncc(-c2nc(N3CCOCC3)c3sc(NCCCCCC(=O)NO)cc3n2)cn1 [Compound 232, 6-[2-(2-Amino-pyrimidin-5-yl)-4-morpholin-4-yl-thieno[3,2-d]pyrimidin-6-ylamino]-hexanoic acid hydroxyamide]
< 100 | < 100 | 235 to 240 °C | Nc1ncc(-c2nc(N3CCOCC3)c3sc(NCCCCCCC(=O)NO)cc3n2)cn1 [Compound 234, 7-[2-(2-Amino-pyrimidin-5-yl)-4-morpholin-4-yl-thieno[3,2-d]pyrimidin-6-ylamino]-heptanoic acid hydroxyamide]
